The values that follow come from BindingDB's records for patent US20230365530 (The Asean Foundation, 2023).

In the test the target is T1, Histone-lysine N-methyltransferase EHMT2 (Homo sapiens, UniProt Q96KQ7).
T1 sequence (Q96KQ7 whole entry): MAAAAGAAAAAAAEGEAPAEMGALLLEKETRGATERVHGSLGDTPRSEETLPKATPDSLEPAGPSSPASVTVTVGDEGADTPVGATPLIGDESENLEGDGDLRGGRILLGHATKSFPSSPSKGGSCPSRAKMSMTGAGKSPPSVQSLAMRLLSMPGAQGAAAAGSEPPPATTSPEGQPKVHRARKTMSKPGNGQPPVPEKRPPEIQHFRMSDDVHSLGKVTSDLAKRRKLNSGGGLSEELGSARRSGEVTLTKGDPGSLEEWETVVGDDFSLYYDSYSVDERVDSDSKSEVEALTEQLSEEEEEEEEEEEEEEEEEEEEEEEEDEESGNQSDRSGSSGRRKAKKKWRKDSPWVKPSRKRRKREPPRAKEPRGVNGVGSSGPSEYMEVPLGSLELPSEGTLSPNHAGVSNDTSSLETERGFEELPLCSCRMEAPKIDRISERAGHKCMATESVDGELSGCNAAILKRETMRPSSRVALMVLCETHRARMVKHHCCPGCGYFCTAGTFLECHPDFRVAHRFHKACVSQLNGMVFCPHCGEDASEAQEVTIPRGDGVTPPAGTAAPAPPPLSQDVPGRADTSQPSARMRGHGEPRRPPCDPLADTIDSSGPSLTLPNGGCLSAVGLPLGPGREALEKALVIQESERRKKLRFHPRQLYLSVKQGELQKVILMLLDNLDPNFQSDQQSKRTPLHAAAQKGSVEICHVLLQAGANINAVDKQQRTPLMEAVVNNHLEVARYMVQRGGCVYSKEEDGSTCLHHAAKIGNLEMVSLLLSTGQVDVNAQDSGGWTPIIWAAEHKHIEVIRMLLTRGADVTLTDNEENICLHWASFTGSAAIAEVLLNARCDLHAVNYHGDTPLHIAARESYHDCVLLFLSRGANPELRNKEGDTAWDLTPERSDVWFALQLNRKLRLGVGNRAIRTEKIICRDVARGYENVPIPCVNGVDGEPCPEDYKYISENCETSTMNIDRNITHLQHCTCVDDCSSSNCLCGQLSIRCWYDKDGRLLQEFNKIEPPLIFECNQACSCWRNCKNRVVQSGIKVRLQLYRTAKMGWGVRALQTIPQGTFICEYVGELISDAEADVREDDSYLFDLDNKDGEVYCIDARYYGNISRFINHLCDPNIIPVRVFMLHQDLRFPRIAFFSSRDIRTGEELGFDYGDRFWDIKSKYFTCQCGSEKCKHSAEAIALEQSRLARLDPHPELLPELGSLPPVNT
Kind of test: Enzyme Inhibitory Efficacy Assay. Here is the method:
Specific experimental methods are as follows. First, the compounds of Examples 1 to 89 of 1 nM to 100 μM (4 conc.) were put into a 384 well plate (25 μL/well), and 2 μM […] enzyme (4 conc.) was put into the 384 well plate (25 μL/well). The plate was then centrifuged at 1,500 rpm for 5 seconds after sealing the plate with plate sealing foil. After incubating the EHMT2/G9a enzyme, SAM, and the compounds of Examples above at room temperature for 10 minutes, 2 μM histone H3 peptide (4 conc.) was added to the 384-well plate (25 μL/well). After sealing the plate with plate sealing foil and centrifuging at 1,500 rpm for 5 seconds, an enzymatic reaction was performed at room temperature for 1 hour. Upon completion of the enzyme reaction, 5 μL each of 200 nM Ulight -Streptavidin (4 conc.) and 8 nM Eu-antibody (4 conc.) was added to each well of the plate. The plate was sealed with plate sealing foil, centrifuged at 1,500 rpm for 5 seconds and reacted at room temperature for 1 hour. The signal values were measured with Envision (Ex 320 nm, Em 665 nm), and all background values obtained by reacting without enzyme were deleted from the measured raw data values.

Turning to `COc1cc2c(NC3CCN(C(C)C)CC3)nc(N3CC(F)(F)C3)nc2cc1C#CCCN1CCCC1` [US20230365530, Example 58], the IC50 (as a rule, the concentration that gives 50% inhibition) was below 0.1 µM. Regarding `COc1cc2c(NC3CCN(C(C)C)CC3)nc(N(C)CC(=O)OC(C)(C)C)nc2cc1C#CCCN1CCCC1` [US20230365530, Example 82], the IC50 was below 0.1 µM.
